From PubChem BioAssay (NCI)
Several values for one entry are separate records, joined by “and”; a condition that tells them apart may be missing. Equal values may be shown once.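 Step 1: Grow cells in 96-well plates. Step 2: Expose to compound for 48 hours at 5 concentrations. Step 3: Interpolate endpoints linearly; if unreached, use highest concentration. GI50 marks 50% less growth. TGI denotes the concentration required for complete inhibition of growth.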 Residues, ends and D or L forms follow the SMILES beside them. *: point of attachment. Cbz = O=C(OCc1ccccc1)*

Tests used:
Assay in all cases: NCI tumour cell line growth inhibition, 48 h
[1] = system: A549 NSCLC
[2] = system: ACHN renal
[3] = system: COLO 205 colon
[4] = system: HCC-2998 colon
[5] = system: HCT-116 colon
[6] = system: HCT-15 colon
[7] = system: HL-60(TB) leukemia
[8] = system: MCF7 breast
[9] = system: MDA-N

Structure (SMILES) | GI50 [1] | TGI [1] [µM] | GI50 [2] | TGI [2] [µM] | GI50 [3] | TGI [3] | GI50 [4] | TGI [4] [µM] | GI50 [5] [µM] | GI50 [6] | TGI [6] [µM] | GI50 [7] | TGI [7] | TGI [8] [µM] | TGI [5] [µM] | GI50 [8] [µM] | TGI [9] [µM] | GI50 [9] [µM]
COC(=O)[C@@H](C)C[C@H](Cc1ccccc1)NC(=O)c1csc([C@@H](C[C@H](C(C)C)N(C)C(=O)[C@@H](NC(=O)[C@H]2CCCN2C)C2CC2)OC(C)=O)n1 | 0.00664 µM and 0.0025 µM | > 25 | 0.00419 µM and 0.0025 µM | > 25 | 0.000874 µM and < 0.0025 µM | 0.0117 µM and < 0.0025 µM | 0.00431 µM and 0.0025 µM | > 25 | 0.000389 | 0.00495 µM and 0.0025 µM | > 25 | 0.000219 µM and < 0.0025 µM | 0.000738 µM and < 0.0025 µM | > 25 |  |  |  | 
O=S(=O)(NCCCNc1cc(-c2cn(-c3ccccc3)nc2-c2cccc(O)c2)ccn1)c1ccc(Br)cc1 | 2.6 µM | 12.6 | 2.97 µM | 15.4 | 1.65 µM | 3.4 µM | 2 µM | 3.78 | 1.71 | 1.32 µM | 3.51 | 1.79 µM | 4.92 µM | 5.16 | 4.22 | 1.76 |  | 
CN(C)CCOc1ccccc1NC1=C(Cl)C(=O)C(Nc2ccccc2OCCN(C)C)=C(Cl)C1=O | > 47.3 µM | > 100 | 0.494 µM | 1.6 | 1.78 µM | 3.77 µM | 5.74 µM | > 21.6 | 0.518 | 0.845 µM | 2.61 | 0.658 µM | 2.06 µM | 1.18 | 1.01 | 0.51 |  | 
Cc1ccc(OCCOCCOCCOCCOCCOc2ccc(C)n(O)c2=S)c(=S)n1O | 0.0741 µM | > 100 | 0.0494 µM | > 87.2 | 0.0428 µM | > 100 µM | 0.444 µM | 46.9 | 0.0302 | 0.0392 µM | > 100 | 0.0441 µM | 0.638 µM | > 69.7 | 27.5 | 0.0254 |  | 
CCOC(=O)c1cc(NS(=O)(=O)c2ccc(C)cc2)cc(C(=O)OCC)c1 | 41.4 µM | > 100 | 42.3 µM | > 100 | 36.1 µM | > 100 µM | 19.5 µM | 70.8 | 39.5 | 39.6 µM | > 100 | 26.5 µM | > 100 µM | > 100 | > 100 | 28 |  | 
COc1ccc(Cn2cc3c(c2-c2cc(OC)c(OC)c(OC)c2)CCc2c(CO)noc2-3)cc1 | 0.439 µM | > 100 | 0.659 µM | 45 | 0.339 µM | 4.28 µM | 1.08 µM | 19.2 | 0.311 | 0.315 µM | 27.1 | 0.231 µM | 0.656 µM | 17.8 | 11.4 | 0.176 |  | 
COc1cc(/C=C/C(=O)c2c(-c3ccc(F)cc3)nc3sc(C)nn23)cc(OC)c1OC | 2.53 µM | 8.63 | 1.93 µM | 4.6 | 1.98 µM | 3.77 µM | 2.12 µM | 3.96 | 1.64 | 2 µM | 5.46 | 2.44 µM | 6.17 µM | 16.5 | 3.07 | 3.03 |  | 
O=C1c2c(Cl)c(Cl)c(Cl)c(Cl)c2C(=O)C2(Cl)CC=CCC12Cl (stereo not drawn) | 4.28 µM | 16.3 | 1.89 µM | 3.37 | 1.52 µM | 2.89 µM | 1.78 µM | 3.3 | 1.76 | 1.19 µM | 2.83 | 1.9 µM | 5.04 µM | 3.55 | 3.32 | 1.58 |  | 
O=[N+]([O-])c1ccc2c(c1)C(c1ccccc1Cl)=Nc1c(n[nH]c1-c1cccnc1)N2 | > 25 µM | > 25 | > 25 µM | > 25 | > 25 µM | > 25 µM | > 25 µM | > 25 | > 25 | > 25 µM | > 25 | > 25 µM | > 25 µM | > 25 | > 25 | > 25 |  | 
CN(C)C=Nc1c(I)cc(I)c(CCC(=O)O)c1I | > 100 µM | > 100 | > 100 µM | > 100 | > 100 µM | > 100 µM | > 100 µM | > 100 | > 100 | > 100 µM | > 100 | 82.9 µM | > 100 µM | > 100 | > 100 | > 100 |  | 
CC(=O)OCC1OC(n2ncc(=O)[nH]c2=O)C(OC(C)=O)C1OC(C)=O (stereo not drawn) |  | > 100 |  | > 100 |  | > 100 µM |  | > 100 |  |  | > 100 |  |  | > 100 | > 100 |  | > 100 | 
COC(=O)c1oc2c(C(=O)/C=C/c3ccc(OC)cc3)c(OCCN3CCOCC3)ccc2c1C | 2.22 µM | 6.07 | 1.73 µM | 3.62 | 1.58 µM | 3.12 µM | 1.64 µM | 3.17 | 1.6 | 1.46 µM | 3.12 | 1.44 µM | 4.29 µM | 7.33 | 4.55 | 0.97 |  | 
CC/C=C\C[C@H](O)C/C=C1/C(=O)C=C[C@@H]1C/C=C\CCCCO | 3.35 µM | 11.5 | 1.8 µM | 3.66 | 2.45 µM | 5.99 µM | 1.83 µM | 3.38 | 1.7 | 1.58 µM | 4.57 | 2.29 µM | 6.88 µM | 10.6 | 3.33 | 0.544 |  | 
Cc1sc2c(c1C)C(c1ccc(Cl)cc1)=N[C@@H](CC(=O)NCCCN1CCN(C)CC1)c1nnc(C)n1-2 | 3.22 µM | > 100 | 17.1 µM | > 100 | 0.0995 µM | > 100 µM | 2.55 µM | > 100 | 0.579 | 16.8 µM | > 100 | 0.0583 µM | 5.7 µM | > 100 | > 100 | 0.0564 |  | 
O=c1cccc2n1CC1CNC[C@H]2C1 |  | > 100 |  | > 100 |  | > 100 µM |  | > 100 |  |  | > 100 |  |  | > 100 | > 100 |  | > 100 | 
[Cu+2].[NH-]C(CC(=O)O)C(=O)O.[NH-]C(CC(=O)O)C(=O)O (stereo not drawn) | 52.1 µM | > 100 | > 100 µM | > 100 | > 100 µM | > 100 µM |  |  | > 100 | > 100 µM | > 100 | > 100 µM | > 100 µM | > 100 | > 100 | 52.3 | > 100 | > 100
NC(N)=Nc1ccc(/C=C2\C=Cc3ccccc32)cc1 | 1.87 µM | 4.63 | 1.91 µM | 3.56 | 1.99 µM | 3.7 µM | 1.69 µM | 3.15 | 1.55 | 2.13 µM | 4.55 | 2.67 µM | 5.87 µM | 2.37 | 2.93 | 0.523 |  | 
CC(=O)N[C@@H](Cc1ccc(OP(=O)(O)O)cc1)C(=O)N[C@H]1CCC(=O)N2CCC[C@@H](C(=O)NCc3ccccc3)N2C1=O | > 25 µM | > 25 | > 25 µM | > 25 | > 25 µM | > 25 µM | > 25 µM | > 25 | > 25 | > 25 µM | > 25 | > 25 µM | > 25 µM | > 25 | > 25 | > 25 |  | 
Cc1ccsc1-c1ccc2c(c1)COC2(CCCN(C)C)c1ccc(F)cc1 (stereo not drawn) | 4.48 µM | 18.1 | 3.48 µM | 13.3 | 1.92 µM | 4.19 µM | 1.71 µM | 3.25 | 1.88 | 3.09 µM | 10.9 | 1.93 µM | 4.59 µM | 3.67 | 3.7 | 1.74 |  | 
Cc1ccccc1C(C(=O)NC1CCCCC1)N(C(=O)CNc1ncccc1F)c1cccc(F)c1 (stereo not drawn) | > 100 µM | > 100 | 49.8 µM | > 100 | > 100 µM | > 100 µM | > 100 µM | > 100 | 96.9 | > 100 µM | > 100 | > 100 µM | > 100 µM | > 100 | > 100 | > 100 |  | 
C=C1C(=O)C2=CC1CCC(=O)C1(C)CCC(OC(C)=O)C(C)(C)C1CC2O (stereo not drawn) |  | 22.4 |  | 6.82 |  | 2.47 µM |  | 4 |  |  | 2.6 |  |  | 3.84 | > 21.2 |  | 4.41 | 
O=C1CC(N2C(=O)/C(=C/C(Cl)=C\c3ccc([N+](=O)[O-])cc3)SC2=S)C(=O)N1c1ccc(O)cc1 (stereo not drawn) | 3.11 µM | 11.3 | 1.36 µM | 2.76 | 1.83 µM | 5.04 µM | 1.48 µM | 2.92 | 0.751 | 0.472 µM | 1.95 | 2.44 µM | 9.57 µM | 10.7 | 2.14 | 1.21 |  | 
COc1ccc(NC(=O)c2ccc(NC3=C(Cl)C(=O)N(Cc4ccccc4)C3=O)cc2)c(OC)c1 | 45.4 µM | > 100 | 36 µM | > 100 | 44.4 µM | > 100 µM | 10.1 µM | 21.7 | 5.4 | 20 µM | 46.3 | 13.2 µM | 31.1 µM | > 100 | 25.6 | 33.7 |  | 
O=C(O)c1cn(C2CC2)c2cc(N3CCN(Cc4c(O)ccc5ccccc45)CC3)c(F)cc2c1=O | 4.03 µM | > 100 | 29.6 µM | > 100 | 5.13 µM | > 100 µM | > 100 µM | > 100 | 2.37 | 3.64 µM | > 100 | > 100 µM | > 100 µM | > 100 | 6.17 | 5.63 |  | 
N#Cc1c(N/N=C\c2ccc(Cl)cc2)nc(N)nc1N1CCOCC1 | 29.6 µM | > 100 | 23.1 µM | 92.6 | 66.2 µM | > 100 µM | 22 µM | > 100 | 29.7 | 26.7 µM | 97.3 | 9.84 µM | 27.2 µM | > 100 | > 100 | 77.3 |  | 
Oc1ccccc1/C=N\NC(=S)N/N=C/c1ccccc1O | 3.5 µM | > 100 | 1.77 µM | > 100 | 4.23 µM | 18.9 µM | 3.62 µM | > 100 | 1.37 | 0.589 µM | > 100 | 2.04 µM | 14.6 µM | 40.3 | > 100 | 2.38 |  | 
CC(C)Cc1ccc(C(C)C(=O)NCc2ccc(Cn3c(=O)sn(CCCI)c3=O)cc2)cc1 (stereo not drawn) | 1.39 µM | 3.12 | 0.233 µM | 0.633 | 0.271 µM | 1.14 µM | 1.75 µM | 3.38 | 0.134 | 0.237 µM | 0.738 | 0.775 µM | > 22.7 µM | 2.03 | 0.393 | 0.397 |  | 
CN(C)Cc1c(C(=O)NCCOc2ccc(C(=O)NO)cc2)oc2ccccc12 | 0.299 µM | 1.98 | 0.264 µM | 1.15 | 0.133 µM | 0.282 µM | 0.22 µM | 0.83 | 0.0705 | 1.9 µM | > 35.9 | 0.303 µM | 2.19 µM |  | 0.502 | 0.261 |  | 
CC(C)C[C@@H](C=O)NC(=O)[C@H](CC(C)C)NC(=O)[C@H](CC(C)C)NC(=O)OCc1ccccc1 (Cbz-Leu-Leu-Leu-aldehyde) | 0.578 µM | 12.8 | 0.357 µM | 1.98 | 0.404 µM | 1.62 µM | 0.24 µM | 0.631 | 0.294 | 0.465 µM | 10.2 | 0.33 µM | 1.89 µM | 14 | 1.04 | 0.422 |  | 
C=CC(=O)N1CC[C@H](n2nc(C#Cc3cc(OC)cc(OC)c3)c3c(N)ncnc32)C1 | 9.78 µM | > 100 | 3.76 µM | > 100 | 15.8 µM | > 100 µM | 17.2 µM | > 100 | 6.04 | 5.53 µM | > 100 | 6.23 µM | 70.4 µM | > 100 | > 100 | 3.78 |  | 
